From US10538512B2, “Aminoacylindazole immunomodulators for treatment of autoimmune diseases” (The Rockefeller University, priority 2016, dated 2020)

Legend:
Human FXIIa = molecular target: T1, Human FXIIa (Homo sapiens, UniProt P00748); test: Factor XIIa (FXIIa) inhibitory activity, chromogenic substrate assay; type: biochemical; conditions: Human FXIIa 12.5 nM, Pefachrome XIIa 400 μM, 10 min preincubation
T1 construct: active coagulation factor XII (FXIIa); purchased Enzyme Research Labs
T1 sequence (P00748 373-615 limits assumed): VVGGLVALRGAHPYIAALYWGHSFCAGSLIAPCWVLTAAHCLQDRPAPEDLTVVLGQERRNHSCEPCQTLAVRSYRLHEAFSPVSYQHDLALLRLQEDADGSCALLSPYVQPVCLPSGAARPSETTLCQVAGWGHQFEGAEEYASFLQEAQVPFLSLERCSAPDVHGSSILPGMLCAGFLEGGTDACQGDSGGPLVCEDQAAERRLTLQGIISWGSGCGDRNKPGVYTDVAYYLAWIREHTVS
T1 sequence (P00748 20-372 partner limits assumed): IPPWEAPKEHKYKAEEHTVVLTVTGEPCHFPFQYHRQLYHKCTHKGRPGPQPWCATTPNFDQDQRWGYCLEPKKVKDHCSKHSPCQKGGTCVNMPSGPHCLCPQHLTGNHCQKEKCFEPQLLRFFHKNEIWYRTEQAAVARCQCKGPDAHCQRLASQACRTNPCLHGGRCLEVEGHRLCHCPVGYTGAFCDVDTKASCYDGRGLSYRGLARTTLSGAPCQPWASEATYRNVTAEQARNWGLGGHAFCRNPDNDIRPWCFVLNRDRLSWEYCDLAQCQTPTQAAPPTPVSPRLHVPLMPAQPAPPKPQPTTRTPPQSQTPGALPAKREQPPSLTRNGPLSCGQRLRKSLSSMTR
Outline: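 Activity was taken as the rate of absorbance increase at 405 nm, read at 37 °C after adding 400 μM (final) Pefachrome XIIa. Compounds spanning roughly 1–100 μM were first preincubated with enzyme for 10 min at room temperature in HEPES pH 7.4-buffered HBSS/TBS-Tween.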

Human alpha-thrombin = molecular target: T2, Human alpha-thrombin (Homo sapiens, UniProt P00734); test: Thrombin counterscreen for selectivity, fluorogenic substrate assay; type: biochemical; conditions: Human alpha-thrombin 12.5 nM, Boc-Val-Pro-Arg-AMC 20 μM, 10 min preincubation
T2 construct: Human alpha-thrombin (Enzyme Research Labs); purchased Enzyme Research Labs
Outline: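 Compounds, about 1–100 μM, preincubated 10 min at room temperature with enzyme, then Boc-Val-Pro-Arg-AMC added at 20 μM final.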

Structure (SMILES): Nc1nn(C(=O)c2cccc3c2CC(=O)N3)c2c1CCCC2 (single isomer, unassigned) [Example 65, 4-(3-amino-4,5,6,7-tetrahydro-1H-indazole-1-carbonyl)indolin-2-one]
- IC50 (Human FXIIa): > 100 µM
- IC50 (Human alpha-thrombin): > 100 µM

Structure (SMILES): Cc1cc2c(C(=O)n3nc(N)c4c3CCCC4)cccc2o1 (single isomer, unassigned) [Example 59, (3-amino-4,5,6,7-tetrahydroindazol-1-yl)(2-methylbenzofuran-4-yl)methanone]
- IC50 (Human FXIIa): > 100 µM
- IC50 (Human alpha-thrombin): > 100 µM

Structure (SMILES): Cc1csc(C)c1C(=O)n1cc2c(n1)CCCC2 [Example 35, 2-[(2,4-dimethylthiophen-3-yl)carbonyl]-4,5,6,7-tetrahydro-2H-indazole]
- IC50 (Human FXIIa): > 100 µM
- IC50 (Human alpha-thrombin): > 100 µM

Structure (SMILES): CS(=O)(=O)N1CCC(C(=O)n2nc3c(c2N)CCCC3)c2ccccc21 (stereo not drawn) [Example 99, (3-amino-4,5,6,7-tetrahydroindazol-2-yl)(1-(methylsulfonyl)-1,2,3,4-tetrahydroquinolin-4-yl)methanone]
- IC50 (Human FXIIa): 1 µM
- IC50 (Human alpha-thrombin): 22 µM

Structure (SMILES): Nc1c2c(nn1C(=O)c1cccc3[nH]c(C4CC4)cc13)CCCC2 (single isomer, unassigned) [Example 53, (3-amino-4,5,6,7-tetrahydroindazol-2-yl)(2-cyclopropyl-1H-indol-4-yl)methanone]
- IC50 (Human FXIIa): 0.02 µM
- IC50 (Human alpha-thrombin): 28 µM

Structure (SMILES): Nc1nn(C(=O)[C@H]2CCNc3ccccc32)c2c1C[C@H](O)CC2 (single isomer, unassigned) [Example 167, ((5R*)-3-amino-5-hydroxy-4,5,6,7-tetrahydroindazol-1-yl)((4S*)-1,2,3,4-tetrahydroquinolin-4-yl)methanone]
- IC50 (Human FXIIa): > 80 µM
- IC50 (Human alpha-thrombin): > 80 µM

Structure (SMILES): CCN1CCC(C(=O)n2nc(N)c3c2CCCC3)c2ccccc21 (single isomer, unassigned) [Example 75, (3-amino-4,5,6,7-tetrahydroindazol-1-yl)(1-ethyl-1,2,3,4-tetrahydroquinolin-4-yl)methanone]
- IC50 (Human FXIIa): > 100 µM
- IC50 (Human alpha-thrombin): > 100 µM

Structure (SMILES): Nc1c2c(nn1C(=O)[C@H]1CCCc3[nH]c(Cl)cc31)CC[C@H](O)C2 (single isomer, unassigned) [Example 127, ((5S*)-3-amino-5-hydroxy-4,5,6,7-tetrahydroindazol-2-yl)((4S*)-2-chloro-4,5,6,7-tetrahydro-1H-indol-4-yl)methanone]
- IC50 (Human FXIIa): 0.35 µM
- IC50 (Human alpha-thrombin): > 80 µM

Structure (SMILES): Nc1nn(C(=O)C2OCCc3ccccc32)c2c1CCCC2 (single isomer, unassigned) [Example 15, (3-amino-4,5,6,7-tetrahydroindazol-1-yl)(isochroman-1-yl)methanone]
- IC50 (Human FXIIa): > 100 µM
- IC50 (Human alpha-thrombin): > 100 µM

Structure (SMILES): Nc1c2c(nn1C(=O)C1CCc3ccccc31)CCCC2 (stereo not drawn) [Example 46, (3-amino-4,5,6,7-tetrahydroindazol-2-yl)(2,3-dihydro-1H-inden-1-yl)methanone]
- IC50 (Human FXIIa): 7.5 µM
- IC50 (Human alpha-thrombin): > 50 µM

Structure (SMILES): Nc1c2c(nn1C(=O)c1cccc3[nH]cnc13)CCCC2 [Example 48, (3-amino-4,5,6,7-tetrahydroindazol-2-yl)(1H-benzo[d]imidazol-4-yl)methanone]
- IC50 (Human FXIIa): > 100 µM
- IC50 (Human alpha-thrombin): > 100 µM

Structure (SMILES): Nc1c2c(nn1C(=O)[C@@H]1CCNc3ccccc31)CC[C@H](O)C2 (single isomer, unassigned) [Example 169, ((5S*)-3-amino-5-hydroxy-4,5,6,7-tetrahydroindazol-2-yl)((4R*)-1,2,3,4-tetrahydroquinolin-4-yl)methanone]
- IC50 (Human FXIIa): 60 µM
- IC50 (Human alpha-thrombin): > 100 µM

Structure (SMILES): Nc1c2c(nn1C(=O)[C@H]1CCNc3c(Cl)cccc31)C[C@H](O)CC2 (single isomer, unassigned) [Example 209, ((6R*)-3-amino-6-hydroxy-4,5,6,7-tetrahydroindazol-2-yl)((4S*)-8-chloro-1,2,3,4-tetrahydroquinolin-4-yl)methanone]
- IC50 (Human FXIIa): 0.04 µM
- IC50 (Human alpha-thrombin): > 100 µM

Structure (SMILES): Cc1nn(C(=O)c2cccc3[nH]ccc23)c2c1CCCC2 (single isomer, unassigned) [Example 4, (1H-indol-4-yl)(3-methyl-4,5,6,7-tetrahydroindazol-1-yl)methanone]
- IC50 (Human FXIIa): 65 µM
- IC50 (Human alpha-thrombin): 45 µM

Structure (SMILES): Nc1c2c(nn1C(=O)C1CCCc3ccccc31)CCCC2 (single isomer, unassigned) [Example 5, (S*)-(3-Amino-4,5,6,7-tetrahydroindazol-2-yl)(1,2,3,4-tetrahydronaphthalen-1-yl)methanone]
- IC50 (Human FXIIa): 1.7 µM
- IC50 (Human alpha-thrombin): > 50 µM

Structure (SMILES): CCc1ccccc1C(=O)n1nc(N)c2c1CCCC2 [Example 152]
- IC50 (Human FXIIa): 25 µM
- IC50 (Human alpha-thrombin): > 100 µM

Structure (SMILES): CCCn1ccc2c(C(=O)n3nc4c(c3N)CCCC4)cccc21 [Example 36, (3-amino-4,5,6,7-tetrahydroindazol-2-yl)(1-propyl-1H-indol-4-yl)methanone]
- IC50 (Human FXIIa): 0.2 µM
- IC50 (Human alpha-thrombin): > 80 µM

Structure (SMILES): Nc1c2c(nn1C(=O)C1CCCc3ccccc31)CCCC2 (single isomer, unassigned) [Example 6, (R*)-(3-amino-4,5,6,7-tetrahydroindazol-2-yl)(1,2,3,4-tetrahydronaphthalen-1-yl)methanone]
- IC50 (Human FXIIa): ≥ 50 µM
- IC50 (Human alpha-thrombin): > 50 µM

Structure (SMILES): Cc1sc2ccccc2c1C(=O)n1nc2c(c1N)CCCC2 (single isomer, unassigned) [Example 23, (3-Amino-4,5,6,7-tetrahydroindazol-2-yl)(2-methylbenzo[b]thiophen-3-yl)methanone]
- IC50 (Human FXIIa): 5 µM
- IC50 (Human alpha-thrombin): > 100 µM

Structure (SMILES): Cc1cccc2c1NCC[C@@H]2C(=O)n1nc2c(c1N)C[C@H](O)CC2 (single isomer, unassigned) [Example 218, ((5R*)-3-amino-5-hydroxy-4,5,6,7-tetrahydro-2H-indazol-2-yl)((4S*)-8-methyl-1,2,3,4-tetrahydroquinolin-4-yl)methanone]
- IC50 (Human FXIIa): 0.05 µM
- IC50 (Human alpha-thrombin): > 90 µM

Structure (SMILES): O=C(Nc1[nH]nc2c1CCCC2)C1OCCc2ccccc21 (stereo not drawn) [Example 14, N-(4,5,6,7-tetrahydro-2H-indazol-3-yl)isochroman-1-carboxamide]
- IC50 (Human FXIIa): > 10 µM
- IC50 (Human alpha-thrombin): > 10 µM

Structure (SMILES): Nc1nn(C(=O)C2CCNc3ccccc32)c2ccccc12 (stereo not drawn) [Example 77, (3-amino-1H-indazol-1-yl)(1,2,3,4-tetrahydroquinolin-4-yl)methanone]
- IC50 (Human FXIIa): > 100 µM
- IC50 (Human alpha-thrombin): > 100 µM

Structure (SMILES): Cc1[nH]c2ccccc2c1C(=O)n1nc(N)c2c1CCCC2 [Example 154]
- IC50 (Human FXIIa): 17 µM
- IC50 (Human alpha-thrombin): > 50 µM

Structure (SMILES): CCc1cc2c(C(=O)n3nc4c(c3N)CCCC4)cccc2n1CC (single isomer, unassigned) [Example 68, (3-amino-4,5,6,7-tetrahydroindazol-2-yl)(1,2-diethyl-1H-indol-4-yl)methanone]
- IC50 (Human FXIIa): 0.01 µM
- IC50 (Human alpha-thrombin): 40 µM

Structure (SMILES): Cc1cc2c(C(=O)n3nc4c(c3N)CCCC4)cccc2[nH]1 (single isomer, unassigned) [Example 9, (3-Amino-4,5,6,7-tetrahydroindazol-2-yl)(2-methyl-1H-indol-4-yl)methanone]
- IC50 (Human FXIIa): 0.02 µM
- IC50 (Human alpha-thrombin): 40 µM

Structure (SMILES): CO[C@H]1CCc2nn(C(=O)[C@H]3CCNc4ccc(F)cc43)c(N)c2C1 (single isomer, unassigned) [Example 177, ((5S*)-3-amino-5-methoxy-4,5,6,7-tetrahydroindazol-2-yl)((4S*)-6-fluoro-1,2,3,4-tetrahydroquinolin-4-yl)methanone]
- IC50 (Human FXIIa): 2 µM
- IC50 (Human alpha-thrombin): > 100 µM

Structure (SMILES): CCN1CCC(C(=O)n2nc3c(c2N)CCCC3)c2ccccc21 (single isomer, unassigned) [Example 74, (3-amino-4,5,6,7-tetrahydroindazol-2-yl)(1-ethyl-1,2,3,4-tetrahydroquinolin-4-yl)methanone]
- IC50 (Human FXIIa): 0.5 µM
- IC50 (Human alpha-thrombin): > 100 µM

Structure (SMILES): Cc1cccc2c1NCC[C@H]2C(=O)n1nc2c(c1N)CC[C@H](O)C2 (single isomer, unassigned) [Example 197, ((6S*)-3-amino-6-hydroxy-4,5,6,7-tetrahydroindazol-2-yl)((4R*)-8-methyl-1,2,3,4-tetrahydroquinolin-4-yl)methanone]
- IC50 (Human FXIIa): 1.5 µM
- IC50 (Human alpha-thrombin): > 150 µM

Structure (SMILES): CC(C)c1cc2c(C(=O)n3nc4c(c3N)CCCC4)cccc2[nH]1 (single isomer, unassigned) [Example 51, (3-amino-4,5,6,7-tetrahydroindazol-2-yl)(2-isopropyl-1H-indol-4-yl)methanone]
- IC50 (Human FXIIa): 0.4 µM
- IC50 (Human alpha-thrombin): > 50 µM

Structure (SMILES): Nc1c2c(nn1C(=O)[C@@H]1CCNc3ccc(F)cc31)CC[C@H](O)C2 (relative stereo) [Example 134, ((5S*)-3-amino-5-hydroxy-4,5,6,7-tetrahydro-1H-indazol-2-yl)((4R*)-6-fluoro-1,2,3,4-tetrahydroquinolin-4-yl)methanone]
- IC50 (Human FXIIa): 1.2 µM
- IC50 (Human alpha-thrombin): > 75 µM
